pIC50: −log10 of the molar value. Where “and” joins values, the source holds several entries; their conditions need not be identical. Identical values can stand only once.

This is an account of results in US8933070B2, “Methods of targeting PTEN mutant diseases and compositions therefor” (University Health Network, priority 2010, dated 2015).

For one test, the target named is FGFR2 (Homo sapiens, UniProt P21802). Nature of the test: Kinase selectivity assay (CEREP, HTRF). In kind it is biochemical. The following applies: read-out: % Inhibition at 10 μM Concentration. The method, then:
(§1) The inhibitory activity of selected compounds was evaluated against a panel of 45 different kinase enzymes by CEREP, France. The assays were performed using standard HTRF assay methods as documented by CEREP against the human orthologues of Abl kinase, Akt1/PKBa, AMPKa, BMX kinase (Etk), Brk, CaMK2a, CaMK4, CDC2/CDK1 (cycB), CHK1, CHK2, c-Met kinase, CSK, EphB4 kinase, ERK1, ERK2 (P42mapk), FGFR2 kinase, FGFR4 kinase, FLT-1 kinase (VEGFR1), FLT-3 kinase, Fyn kinase, IGF1R kinase, IRK (InsR), JNK 2, KDR kinase (VEGFR2), Lck kinase, Lyn kinase, MAPKAPK2, MEK1/MAP2K1, p38a kinase, p38d kinase, p38g kinase, PDGFRb kinase, PDK1, PKA, PKCa, PKCb1, PKCb2, PKCg, Ret kinase, ROCK2, RSK2, Src kinase, Syk, and TRKA. The % Inhibition was determined by the formula; % Inhibition=100×(1−(experimental value−background value)/(high activity control−background value)).
(Time-resolved FRET reads energy transfer from a long-lived donor to a nearby acceptor.)

The next test addresses KDR (VEGFR2) (Homo sapiens, UniProt P35968). Nature of the test: Kinase selectivity assay (CEREP, HTRF). The conditions noted are these: read-out: % Inhibition at 10 μM Concentration. The class given is biochemical. The method, then:
as §1

The next test has as its target T1, human PLK4 (Homo sapiens, UniProt O00444).
T1 construct: amino terminal GST fusion of residues 1-391 of human PLK4; made in house; host or cells: E. coli
T1 sequence (O00444 1-391): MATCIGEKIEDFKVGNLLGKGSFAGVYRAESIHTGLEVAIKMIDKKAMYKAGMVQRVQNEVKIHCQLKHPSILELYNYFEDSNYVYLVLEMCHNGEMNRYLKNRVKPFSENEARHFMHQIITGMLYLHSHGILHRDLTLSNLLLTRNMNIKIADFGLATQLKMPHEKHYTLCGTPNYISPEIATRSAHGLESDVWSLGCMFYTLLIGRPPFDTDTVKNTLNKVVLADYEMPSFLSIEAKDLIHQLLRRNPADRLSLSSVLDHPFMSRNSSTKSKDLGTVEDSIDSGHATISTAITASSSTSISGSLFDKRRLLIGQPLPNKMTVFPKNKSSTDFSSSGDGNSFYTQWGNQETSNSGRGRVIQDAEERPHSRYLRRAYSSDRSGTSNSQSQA
Nature of the test: PLK4 inhibition assay (indirect ELISA). In kind it is biochemical. The method, then:
The protein was purified from clarified cell extracts after induction at 15° C. overnight using glutathione sepharose, gel permeation chromatography, and ion exchange (Resource Q). The resulting protein was dephosphorylated with lambda phosphatase (NEB cat# P0753), and resolved from the phosphatase using gluthione sepharose. The dephosphorylated GST-PLK4 was stored in aliquots at −80° C. until use.
PLK4 activity was measured using an indirect ELISA detection system. […] The colourimetric reaction was allowed to continue for 5 minutes, followed by addition of stop solution (0.5 N sulphuric acid), and quantified by detection at 450 nm with either a monochromatic or filter based plate reader (Molecular Devices M5 or Beckman DTX880, respectively).
Compounds were pre-incubated in the presence of enzyme for 15 minutes prior to addition of ATP and the activity remaining quantified using the above described activity assay. […] The IC50 value was determined using a non-linear 4 point logistic curve fit (XLfit4, IDBS) with the formula; (A+(B/(1+((x/C)^D)))), where A=background value, B=range, C=inflection point, D=curve fit parameter.
(In general: An ELISA detects its analyte on a solid surface through an enzyme-linked reagent.)

Test [1] has as its system HCT116 p53 negative cells. The method, then:
(§2) Breast cancer cells were seeded at various concentrations, ranging from 1×10^5 to 2.5×10^5 per well according to cell growth rate, into 6-well plates 24 hours before siRNA and/or compound treatment. Each 10 mM stock solution in 100% DMSO of the compounds was diluted with Opti-MEM I Reduced-Serum Medium (Invitrogen, Canada) and added to the cells to the stated final concentrations. Control cells received 0.001% DMSO alone. Where indicated, 40 nM PTEN siRNAs (siPTEN) (QIAGEN, Canada; sense sequence: 5′-[…]-3′) or 40 nM control siRNA (siCTRL) (QIAGEN, Canada) were transfected into cells using Lipofectamine 2000 according to the manufacturer's protocol (Invitrogen, Canada). Prior to analysis, cells were trypsinized, washed in 1× phosphate-buffered saline (PBS) and centrifuged. […] All samples were read in a FACSCalibur flow cytometer (Becton, Dickinson and Company), and data analyzed using FloJo software (Tree Star, Inc.).
(§3) To explore if PTEN status may be a contributing factor in determining if PLK4 inhibitor treatment induces a cell death response in cancer cells, a test of whether reducing the levels of endogenous PTEN would sensitize HCT116 cells (either p53 wild-type or negative) to PLK4 compound-induced death (FIG. 7) was performed. […] After two days of inhibitor treatment, the percentage of sub-G1 cells was measured by cell cycle analysis.

Test [2] relates to HCT116 p53 wild-type cells. On the procedure:
as §2, §3

Sequence of FGFR2 (P21802 22-821): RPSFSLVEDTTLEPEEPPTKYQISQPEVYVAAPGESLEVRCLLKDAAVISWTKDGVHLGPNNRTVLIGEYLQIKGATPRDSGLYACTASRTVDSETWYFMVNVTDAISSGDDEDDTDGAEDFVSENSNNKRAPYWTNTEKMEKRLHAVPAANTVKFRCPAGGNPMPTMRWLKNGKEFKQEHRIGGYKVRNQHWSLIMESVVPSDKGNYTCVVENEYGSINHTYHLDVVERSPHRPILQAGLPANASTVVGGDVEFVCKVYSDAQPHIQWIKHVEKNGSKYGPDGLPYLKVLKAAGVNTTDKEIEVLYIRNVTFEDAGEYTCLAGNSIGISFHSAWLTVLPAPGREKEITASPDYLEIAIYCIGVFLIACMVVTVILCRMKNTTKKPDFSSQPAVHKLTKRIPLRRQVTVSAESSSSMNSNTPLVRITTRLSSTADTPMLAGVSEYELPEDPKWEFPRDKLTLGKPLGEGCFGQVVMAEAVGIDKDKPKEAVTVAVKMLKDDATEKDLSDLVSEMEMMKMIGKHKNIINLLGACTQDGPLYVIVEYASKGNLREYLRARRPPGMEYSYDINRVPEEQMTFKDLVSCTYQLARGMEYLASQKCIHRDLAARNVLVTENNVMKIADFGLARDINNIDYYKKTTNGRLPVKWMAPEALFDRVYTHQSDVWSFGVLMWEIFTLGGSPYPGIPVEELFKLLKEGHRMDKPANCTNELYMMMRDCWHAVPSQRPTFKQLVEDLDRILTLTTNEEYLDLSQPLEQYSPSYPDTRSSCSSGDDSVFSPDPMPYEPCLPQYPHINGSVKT
Sequence of KDR (VEGFR2) (P35968 20-1356): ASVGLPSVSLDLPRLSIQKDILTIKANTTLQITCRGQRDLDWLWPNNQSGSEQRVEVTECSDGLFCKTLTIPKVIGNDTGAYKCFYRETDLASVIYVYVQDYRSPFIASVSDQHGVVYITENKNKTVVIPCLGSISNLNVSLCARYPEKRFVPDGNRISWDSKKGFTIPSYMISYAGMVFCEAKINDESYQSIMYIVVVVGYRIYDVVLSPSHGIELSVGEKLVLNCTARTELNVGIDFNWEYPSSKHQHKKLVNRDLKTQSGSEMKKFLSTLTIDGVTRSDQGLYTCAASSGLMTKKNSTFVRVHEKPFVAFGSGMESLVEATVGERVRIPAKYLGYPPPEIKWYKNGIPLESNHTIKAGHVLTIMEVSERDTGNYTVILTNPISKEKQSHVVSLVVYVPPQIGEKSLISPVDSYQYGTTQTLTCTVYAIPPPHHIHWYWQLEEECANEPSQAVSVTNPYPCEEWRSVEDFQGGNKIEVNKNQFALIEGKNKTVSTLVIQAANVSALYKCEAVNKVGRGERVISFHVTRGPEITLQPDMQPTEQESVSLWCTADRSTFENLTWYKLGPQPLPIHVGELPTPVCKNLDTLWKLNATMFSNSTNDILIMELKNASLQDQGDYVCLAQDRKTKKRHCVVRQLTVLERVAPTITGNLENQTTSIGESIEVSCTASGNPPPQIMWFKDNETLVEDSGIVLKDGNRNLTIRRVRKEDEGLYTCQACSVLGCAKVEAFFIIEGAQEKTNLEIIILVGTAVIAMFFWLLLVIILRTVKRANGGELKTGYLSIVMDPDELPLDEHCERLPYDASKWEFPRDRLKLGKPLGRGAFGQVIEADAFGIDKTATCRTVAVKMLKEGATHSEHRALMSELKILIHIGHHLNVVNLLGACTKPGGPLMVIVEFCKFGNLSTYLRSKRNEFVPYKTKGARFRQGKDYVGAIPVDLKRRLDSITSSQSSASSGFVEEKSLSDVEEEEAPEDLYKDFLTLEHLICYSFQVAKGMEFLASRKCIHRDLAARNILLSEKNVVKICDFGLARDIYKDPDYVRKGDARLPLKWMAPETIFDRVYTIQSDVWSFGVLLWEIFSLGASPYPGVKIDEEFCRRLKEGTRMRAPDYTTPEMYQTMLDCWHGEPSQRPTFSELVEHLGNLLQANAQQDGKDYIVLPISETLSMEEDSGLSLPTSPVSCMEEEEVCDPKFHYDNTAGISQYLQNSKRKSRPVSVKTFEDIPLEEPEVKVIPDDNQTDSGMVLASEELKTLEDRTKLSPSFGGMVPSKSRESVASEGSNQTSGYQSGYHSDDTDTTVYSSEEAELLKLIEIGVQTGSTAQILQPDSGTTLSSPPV

Consider `COc1ccc2c(c1)/C(=C\c1ccc3c(/C=C/c4ccc(N5CCN(C)CC5)nc4)n[nH]c3c1)C(=O)N2` [Compound 3], for which the inhibition at 10 µM at FGFR2 worked out at 4%; at KDR (VEGFR2) it was 32%.
As a reminder, the pIC50 is −log10 of the IC50, conventionally taken in molar units. Regarding `COc1ccc2c(c1)[C@@]1(C[C@@H]1c1ccc3c(-c4ccc(N5CCN(C)CC5)nc4)n[nH]c3c1)C(=O)N2` (racemic) [Compound 2], the negative logarithm of the IC50 (pIC50) on human PLK4 was above 5.30. In addition, the “percentage of sub-G1 cells” value in test [1] was 5.4% and 10.3%; in test [2], 7.1% and 15.9%.
